PMC5454942, “The Potential of Triterpenoids from Loquat Leaves (Eriobotrya japonica) for Prevention and Treatment of Skin Disorder” (International Journal of Molecular Sciences, 2017)
In brackets after ≈: the same amount, converted by molar mass. Where two headings read alike, the source gives them in different places. One block for each compound: values may come before it.

Columns and labels:
in vitro = conditions: mouse
Experimental: (§1) This assay was performed as described by Arung et al.. The mouse melanoma cell line B16 was obtained from the Riken Bioresource Center Cell Bank (Tsukuba, Japan). The B16 melanoma cells were maintained in Eagle’s Minimal Essential Medium (EMEM, Nissui Chemical, Tokyo) supplemented with 10% (v/v) fetal bovine serum (FBS; Gibco, Carlsbad, CA, USA) and 0.09 mg/mL theophylline (Sigma-Aldrich, St. Louis, MO, USA). […] After 24 h, test samples were dissolved in DMSO (<0.2% per well) and sample solution were added to each well. Arbutin (Tokyo Kasei Kogyo, Tokyo) was used as a positive control. The cells were incubated for an additional 48 h, and then the medium was replaced with fresh medium containing each sample again. After 24 h, the melanin content and the cell viability were measured using a microplate reader (BioTek-ELX800, BioTek Instruments, Winooski, VT, USA) at 405 nm and 570 nm, respectively. Cell viability was measured using the MTT (3-(4,5-dimethylthiazol-2-yl)-2,5-diphenyltetrazolium bromide) method.

B16 melanoma cells [1] = experiment: Anti-melanogenesis assay (melanin content); assay type: cell-based, mouse
Experimental: as §1

B16 melanoma cells [2] = experiment: Cell viability of B16 melanoma cells (MTT); conditions: for Inhibition rate (100% − cell viability): B16 cells
Experimental: as §1

RBL-2H3 cells [3] = experiment: Cell viability of RBL-2H3 cells (parallel MTT); assay type: cell-based, rat; conditions: 25 μg/ml, RBL-2H3 cells
Experimental: (§2) The anti-allergy assay was based mostly on the methods described by Zhu et al. and Yun et al. with slight modification. Rat basophilic leukemia (RBL-2H3) cells were obtained from the Riken Bio-resource Center Cell Bank (Tsukuba, Japan). RBL-2H3 cells were incubated in EMEM medium containing 10% FBS and 1% antibiotics–antimycotics at 37 °C. The cells were seeded on a 96-well plate (2 × 10^5 cells/well). After 24 h of incubation, the medium was supplemented with 0.5 μg/mL anti-DNP (dinitrophenol) mouse immunoglobulin E (IgE) (Sigma-Aldrich). After an additional 24 h of incubation, the medium was replaced with 100 μL of Tyrode buffer. The sample dissolved in DMSO (<0.5% per well) was added, and the cell plate was incubated again for 30 min, then replaced with 100 μL of tyrode buffer containing 50 μg/mL DNP-bovine serum albumin (BSA) (Invitrogen, Carlsbad, CA, USA). After 1 h of incubation, 50 μL of the supernatant was collected from each well and mixed with 50 μL of substrate solution (p-nitrophenyl-N-acetyl-β-glucosaminide, 2 mM; Sigma-Aldrich) in a new 96-well plate. The mixture was incubated at room temperature on a shaker for 3 h. Finally, 100 μL of stop solution was added, and the absorbance was read at 405 nm. A parallel MTT experiment was performed to measure the cell viability. The MTT experiment was done exactly as described.

Propionibacterium acnes = experiment: Anti-bacterial assay (growth inhibition, MIC/MBC by broth microdilution); assay type: cell-based
Experimental: The antibacterial assay was based mostly on the methods described by Tanaka et al. with slight modification. Propionibacterium acne (NBRC 107605) was used for the antibacterial assay. A single colony of the test strain was taken and 5 mL of Gifu anaerobic medium (GAM) broth (Nissui, Tokyo) was added to it. This culture was incubated at 37 °C for 30 h. It was then added to the bacterial suspension to prepare a bacterial concentration at 10^5 CFU/mL. The bacterial solution was used for the subsequent antibacterial assay. Each compound was dissolved in DMSO, and benzalkonium chloride (Wako) was used as a positive control. The plate was incubated at 37 °C for 30 h. Finally, bacterial growth was measured by a microplate reader at 630 nm. The MIC and MBC were evaluated by the standard broth microdilution method.

NHDF cells = experiment: Skin type I collagen synthesis promoting assay (ELISA, with MTT); assay type: cell-based, human; conditions: 5 μg/mL, fold of control
Experimental: The assay for measuring the promotion of skin collagen synthesis was described by Kishikawa et al.. Adult NHDF cells (Lonza, Tokyo) were routinely maintained in 10% FBS and 1% antibiotic-antimycotic (Invitrogen) in Dulbecco’s modified Eagle’s medium (DMEM, Wako). After growing to confluence, cells at a density of 5 × 10^3 cells/well were seeded on 96-well plates for 24 h before the treatment. The medium was replaced with a mixture of 1 μL of sample solution (DMSO < 0.5% per well) and 99 μL of DMEM supplemented with 0.5% FBS. After 72 h of cultivation, the amount of collagen in the medium was measured using a human type I collagen enzyme-linked immunosorbent assay (ELISA) kit (ACEL, Kanagawa, Japan). The amount of collagen production was calculated using a standard curve prepared by measurement by the same ELISA. The cells remaining in the 96-well plate were subjected to an MTT assay. Ascorbic acid (100 μM, Wako) was used as a positive control.

RBL-2H3 cells [4] = experiment: β-hexosaminidase release from IgE-stimulated RBL-2H3 mast cells; assay type: cell-based, rat; conditions: Rattus norvegicus, RBL-2H3; 25 μg/mL; read-out: Inhibition Rate (β-hexosaminidase release)
Experimental: as §2

[5] = Cell viability of RBL-2H3 cells (parallel MTT); assay type: cell-based, rat; conditions: rat; 25 μg/ml, RBL-2H3 cells; read-out: Cell viability
Experimental: as §2

[6] = Mus musculus, B16 melanoma cells, read-out: IC50 (melanin synthesis)

- IC50 (B16 melanoma cells [1]; [6]): 976 µM
SMILES: OC[C@H]1O[C@@H](Oc2ccc(O)cc2)[C@H](O)[C@@H](O)[C@@H]1O [Arbutin, reference compound]
- CC50 at 72 h (in vitro): 1820 µM

- IC50 melanin (B16 melanoma cells [1]; B16 melanoma cells): 9.0 mg/L (≈ 18.4 µM)
- IC50 (B16 melanoma cells [1]; B16 melanoma cells, read-out: IC50 (melanin synthesis)): 18.5 µM
- MIC (Propionibacterium acnes; P. acnes, broth microdilution): 100 mg/L (≈ 205 µM)
SMILES: C[C@@H]1CC[C@]2(C(=O)O)CC[C@]3(C)C(=CC[C@@H]4[C@@]5(C)C[C@@H](O)[C@H](O)C(C)(C)[C@@H]5CC[C@]43C)[C@@H]2[C@]1(C)O [Compound 11, tormentic acid]
- Inhibition rate (100% − cell viability) (B16 melanoma cells [2]; 1 μg/ml): 12.0 ± 12.8%
- Inhibition rate (100% − cell viability) (B16 melanoma cells [2]; 2.5 μg/ml): 13.7 ± 10.7%
- Inhibition rate (100% − cell viability) (B16 melanoma cells [2]; 5 μg/ml): 8.7 ± 12.1%
- Inhibition rate (100% − cell viability) (B16 melanoma cells [2]; 10 μg/ml): 52.4 ± 8.6%
- Inhibition rate (100% − cell viability) (B16 melanoma cells [2]; 20 μg/ml): 85.8 ± 1.6%
- CC50 cell viability (B16 melanoma cells [2]; B16 melanoma cells, MTT): 11.4 mg/L (≈ 23.3 µM)
- CC50 (B16 melanoma cells [2]; read-out: CC50 (cell viability), B16 melanoma cells, MTT): 23.3 µM
- Inhibition rate (100% − melanin synthesis) (B16 melanoma cells [1]; 1 μg/ml, B16 cells): 0.0± 6.1%
- Inhibition rate (100% − melanin synthesis) (B16 melanoma cells [1]; 2.5 μg/ml, B16 cells): 11.3 ± 3.4%
- Inhibition rate (100% − melanin synthesis) (B16 melanoma cells [1]; 5 μg/ml, B16 cells): 34.8 ± 4.5%
- Inhibition rate (100% − melanin synthesis) (B16 melanoma cells [1]; 10 μg/ml, B16 cells): 51.3 ± 0.9%
- Inhibition rate (100% − melanin synthesis) (B16 melanoma cells [1]; 20 μg/ml, B16 cells): 73.4 ± 8.0%
- Cell viability (RBL-2H3 cells [3]): 62.6 ± 1.1%
- MBC (Propionibacterium acnes; P. acnes, broth microdilution): 200 mg/L (≈ 409 µM)
- activity against P. acnes (in words) (Propionibacterium acnes; at their maximum solubility): active
- Inhibition Rate (P. acnes growth) (Propionibacterium acnes; concentration 100 μg/mL): 102.8 ± 2.1%
- CP/CV value (collagen production %/cell viability %) (NHDF cells): 1.3

- IC50 (B16 melanoma cells [1]; [6]): > 45.2 µM
- IC50 (B16 melanoma cells [1]; Mus musculus, B16 melanoma cells, read-out: IC50 melanin): > 20 mg/L
SMILES: C[C@H]1[C@H](C)CC[C@]2(CO)CC[C@]3(C)C(=CC[C@@H]4[C@@]5(C)CC[C@H](O)C(C)(C)[C@@H]5CC[C@]43C)[C@H]12 [Compound 3, Uvaol]
- Inhibition rate (100% − cell viability) (B16 melanoma cells [2]; 5 μg/ml): 4.0 ± 7.6%
- Inhibition rate (100% − cell viability) (B16 melanoma cells [2]; 10 μg/ml): 10.8 ± 6.8%
- Inhibition rate (100% − cell viability) (B16 melanoma cells [2]; 20 μg/ml): 6.5± 7.4%
- CC50 at 72 h (in vitro; B16 melanoma cells): > 45.2 µM
- inhibition at 5 µg/mL (B16 melanoma cells [1]; Mus musculus, 5 μg/ml, B16 cells, read-out: Inhibition rate (100% − melanin synthesis)): 0%
- inhibition at 10 µg/mL (B16 melanoma cells [1]; Mus musculus, 10 μg/ml, B16 cells, read-out: Inhibition rate (100% − melanin synthesis)): 14.2 ± 2.6%
- inhibition at 20 µg/mL (B16 melanoma cells [1]; Mus musculus, 20 μg/ml, B16 cells, read-out: Inhibition rate (100% − melanin synthesis)): 14.6 ± 4.6%
- inhibition at 25 µg/mL (RBL-2H3 cells [4]): 29.9 ± 3.3%
- viability at 25 μg/ml [5]: 110 ± 10.2%
- inhibition at 50 µg/mL (Propionibacterium acnes; Cutibacterium acnes, concentration 50 μg/mL, read-out: Inhibition Rate (P. acnes growth)): < 0%
